IC50 data for 15 molecules are collected here from patent US8691993B2, “Piperidinyl naphthylacetic acids” (Hoffman-La Roche Inc., priority 2011, dated 2014).

In this experiment the test system is Th2 cells. Put plainly: DK-PGD2-Induced IL-13 Production Assay in Th2 Cells. Format: cell-based. Particulars: inhibition of IL-13 production; human Th2 cells; 500 nM DK-PGD2; 4 hrs at 37° C.; ELISA. How it is done: DK-PGD2-Induced IL-13 Production Assay in Th2 Cells
Inhibition of 13,14-dihydro-15-keto Prostaglandin D2 (DK-PGD2)-induced IL-13 production in T helper type 2 (Th2) cells was applied to evaluate compound cellular potency.
Cultures of Th2 cells were established from blood of healthy human volunteers according to the following procedure. Peripheral blood mononuclear cells (PBMC) were first isolated from 50 mL of fresh blood by Ficoll-Hypaque density gradient centrifugation, followed by CD4^+ cell purification using a CD4^+ T Cell Isolation Kit II (from Miltenyi Biotec Inc.). The CD4^+ T cells were then differentiated to Th2 cells by culturing the cells in X-VIVO 15® medium (from Cambrex BioScience Walkersville Inc.) containing 10% human AB serum (serum of blood type AB from Invitrogen Corporation), 50 U/mL of recombinant human interleukin-2 (rhIL-2) (from PeproTech Inc.) and 100 ng/mL of recombinant human interleukin-4 (rhIL-4) (from PeproTech Inc.) for 7 days. The Th2 cells were isolated using a CD294 (CRTH2) MicroBead Kit (from Miltenyi Biotec Inc.) and amplified in X-VIVO 15® medium containing 10% human AB serum and 50 U/mL of rhIL-2 for 2 to 5 weeks. In general, 70% to 80% of the Th2 cells used in the assay are CRTH2-positive when analyzed by fluorescence-activated cell sorting using the BM16 antibody (as previously described) conjugated to Alexa Fluor 647.
The spontaneous production of IL-13 by Th2 cells was determined in the absence of DK-PGD2 stimulation and the value was subtracted from that in the presence of each compound for percent inhibition and IC50 calculations.
The percent inhibition of interleukin 13 (IL-13) production for a compound at various concentrations was calculated according to the following formula, [1-(IL-13 production in the presence of compound)/(IL-13 production in the presence of 0.15% DMSO)]×100. The IC50 value, defined as the concentration of a compound that is required for 50% inhibition of IL-13 production, was calculated by fitting the percent inhibition data for 7 concentrations to a sigmoidal dose-response (4 parameter logistic) model in the XLfit® software Excel add-in program [ID Business Solutions Ltd., model 205, where F(x)=(A+(B−A)/(1+((C/x)^D)))].
Background: In an ELISA, binding on a coated surface is turned into a signal by an enzyme label.
What is called IC50 is the concentration that gives 50% inhibition. A high value points to a need for much substance. `Cc1c(CC(=O)O)cc2ccc(F)cc2c1C1CCN(S(=O)(=O)c2cccc(C(F)(F)F)c2)CC1` [Example 23] came in with a 50% inhibitory concentration (IC50) of 266 nM. As to `Cc1c(CC(=O)O)cc2ccc(F)cc2c1C1CCN(S(=O)(=O)c2c(Cl)cccc2Cl)CC1` [Example 18, {4-[1-(2,6-Dichloro-benzenesulfonyl)-piperidin-4-yl]-6-fluoro-3-methyl-naphthalen-2-yl}-acetic acid], the IC50 stood at 58 nM. To `Cc1c(CC(=O)O)cc2ccc(F)cc2c1C1CCN(C(=O)Nc2c(F)cccc2F)CC1` [Example 32, {4-[1-(2,6-Difluoro-phenylcarbamoyl)-piperidin-4-yl]-6-fluoro-3-methyl-naphthalen-2-yl}-acetic acid] belongs 371 nM; to `Cc1c(CC(=O)O)cc2ccc(F)cc2c1C1CCN(S(=O)(=O)N2CCCC2)CC1` [Example 25, {6-Fluoro-3-methyl-4-[1-(pyrrolidine-1-sulfonyl)-piperidin-4-yl]-naphthalen-2-yl}-acetic acid], 14 nM; to `Cc1c(CC(=O)O)cc2ccc(F)cc2c1C1CCN(C(=O)c2ccc(Cl)cc2Cl)CC1` [Example 28, {4-[1-(2,4-Dichloro-benzoyl)-piperidin-4-yl]-6-fluoro-3-methyl-naphthalen-2-yl}-acetic acid], 60 nM. Take `Cc1c(CC(=O)O)cc2ccc(F)cc2c1C1CCN(C(=O)c2c(Cl)cccc2Cl)CC1` [Example 29, {4-[1-(2,6-Dichloro-benzoyl)-piperidin-4-yl]-6-fluoro-3-methyl-naphthalen-2-yl}-acetic acid]: the IC50 worked out at 20 nM.

Molecule `Cc1c(CC(=O)O)cc2ccc(F)cc2c1C1CCN(C(=O)Nc2cccc(C(F)(F)F)c2)CC1` [Example 36] had an IC50 of 437 nM. Turning to `Cc1c(CC(=O)O)cc2ccc(F)cc2c1C1CCN(C(=O)Nc2ccc(Cl)cc2Cl)CC1` [Example 33, {4-[1-(2,4-Dichloro-phenylcarbamoyl)-piperidin-4-yl]-6-fluoro-3-methyl-naphthalen-2-yl}-acetic acid], the IC50 came out at 30 nM. In turn, `Cc1c(CC(=O)O)cc2ccc(F)cc2c1C1CCN(S(=O)(=O)Cc2cccc(Cl)c2)CC1` [Example 21, {4-[1-(3-Chloro-phenylmethanesulfonyl)-piperidin-4-yl]-6-fluoro-3-methyl-naphthalen-2-yl}-acetic acid] registered an IC50 of 45 nM. Consider `Cc1c(CC(=O)O)cc2ccc(F)cc2c1C1CCN(C(=O)Nc2ccccc2Cl)CC1` [Example 34, {4-[1-(2-Chloro-phenylcarbamoyl)-piperidin-4-yl]-6-fluoro-3-methyl-naphthalen-2-yl}-acetic acid], for which the IC50 came out at 59 nM.

The molecule `Cc1c(CC(=O)O)cc2ccc(F)cc2c1C1CCN(S(=O)(=O)Cc2ccc(Cl)cc2)CC1` [Example 22, {4-[1-(4-Chloro-phenylmethanesulfonyl)-piperidin-4-yl]-6-fluoro-3-methyl-naphthalen-2-yl}-acetic acid] had an IC50 of 23 nM. As to `Cc1c(CC(=O)O)cc2ccc(F)cc2c1C1CCN(S(=O)(=O)c2ccc(Cl)cc2Cl)CC1` [Example 16, {4-[1-(2,4-Dichloro-benzenesulfonyl)-piperidin-4-yl]-6-fluoro-3-methyl-naphthalen-2-yl}-acetic acid], the IC50 turned out to be 22 nM. Take `Cc1c(CC(=O)O)cc2ccc(F)cc2c1C1CCN(C(=O)c2cc(F)ccc2F)CC1` [Example 30, {4-[1-(2,5-Difluoro-benzoyl)-piperidin-4-yl]-6-fluoro-3-methyl-naphthalen-2-yl}-acetic acid]: half-maximal inhibition (IC50) was put at 83 nM. For `Cc1c(CC(=O)O)cc2ccc(F)cc2c1C1CCN(S(=O)(=O)c2ccccc2Cl)CC1` [Example 14, {4-[1-(2-Chloro-benzenesulfonyl)-piperidin-4-yl]-6-fluoro-3-methyl-naphthalen-2-yl}-acetic acid], the IC50 is 33 nM. The molecule `Cc1c(CC(=O)O)cc2ccc(F)cc2c1C1CCN(S(=O)(=O)Cc2ccccc2N)CC1` [Example 27, {4-[1-(2-Amino-phenylmethanesulfonyl)-piperidin-4-yl]-6-fluoro-3-methyl-naphthalen-2-yl}-acetic acid] came in with an IC50 of 27 nM.
